Earlier results on 2 molecules are cited in patent US20070027107A1, “Compositions and methods for treating estrogen-dependent diseases and conditions” (priority 2005, published 2007).

The conditions of the series: free carboxylic acids (without counterion) of alginate residues.

Each structure is given as a SMILES string.

With `O=C[C@@H](O)[C@@H](O)[C@H](O)[C@@H](O)C(=O)O` [G, L-guluronic acid], the pKa is 3.65.

With `O=C[C@@H](O)[C@@H](O)[C@H](O)[C@H](O)C(=O)O` [M, D-mannuronic acid], the pKa is on record as 3.38.
